Measurements reported in US10787436B2, “Inhibitors of cyclin-dependent kinase 7 (CDK7)” (Dana-Farber Cancer Institute, Inc., priority 2012, dated 2020).
pEC50, pIC50: −log10 of the molar value. Like-named read-outs stand apart in the source and are kept apart here.

Assays:
Hs822T = test: Proliferation assay, CellTiter-Glo, 72 hour; assay type: cell-based; conditions: Ewing's sarcoma cell line, read-out: Inhibition of proliferation, Hs822T
SAOS = test: Proliferation assay, CellTiter-Glo, 72 hour; assay type: cell-based; conditions: osteosarcoma cell line, read-out: Inhibition of proliferation, SAOS
MCF10A = test: Proliferation assay, CellTiter-Glo, 72 hour; assay type: cell-based; conditions: non-tumorigenic breast epithelial cell line, read-out: Inhibition of proliferation, MCF10A
MV4-11 = test: Proliferation assay, CellTiter-Glo, 72 hour; assay type: cell-based; conditions: read-out: Inhibition of proliferation, MV4-11
T47D = test: Proliferation assay, CellTiter-Glo, 72 hour; assay type: cell-based; conditions: breast cancer cell line, read-out: Inhibition of proliferation, T47D
RS4-11 = test: Proliferation assay, CellTiter-Glo, 72 hour; assay type: cell-based; conditions: read-out: Inhibition of proliferation, RS4-11
[1] = test system: patient-derived chronic lymphocytic leukemia (CLL) isolates; test: Cell death of patient-derived CLL isolates, Annexin V staining, 24 hour; assay type: cell-based, human; conditions: Homo sapiens, read-out: Pro-death signaling, average EC50 values
Protocol: Clinical isolates of CLL were cultured with compounds of Formula (I) or flavopiridol and assessed for cell death after a 24 hour time course by Annexin V staining. […] Anti-proliferative effect was measured using cell titer glo analysis.
PBMCs freshly isolated from peripheral blood are seeded in 24 well plates at a volume of 0.5 ml and a concentration of 2×10^6 cells/ml. Compounds and controls are added to respective wells in a total volume of 2.5 μl. Plates are mixed gently and incubated approximately 24 hours at 37° C., 5% CO2. Apoptosis was measured in all cells from each well using the Annexin V: FITC Apoptosis Detection Kit I (BD Biosciences). Normalized % death was calculated as follows: [(% Dead Drug−% Dead DMSO)/(100%−% Dead DMSO)]×100

MCF7 = test: Proliferation assay, CellTiter-Glo, 72 hour; assay type: cell-based; conditions: read-out: Inhibition of proliferation, MCF7
HL60 = test: Proliferation assay, CellTiter-Glo, 72 hour; assay type: cell-based; conditions: read-out: Inhibition of proliferation, HL60
SKBR3 = test: Proliferation assay, CellTiter-Glo, 72 hour; assay type: cell-based; conditions: read-out: Inhibition of proliferation, SKBR3
Hs863T = test: Proliferation assay, CellTiter-Glo, 72 hour; assay type: cell-based; conditions: Ewing's sarcoma cell line, read-out: Inhibition of proliferation, Hs863T
THP-1 = test: Proliferation assay, CellTiter-Glo, 72 hour; assay type: cell-based; conditions: read-out: Inhibition of proliferation, THP-1
MDA-MB231 = test: Proliferation assay, CellTiter-Glo, 72 hour; assay type: cell-based; conditions: read-out: Inhibition of proliferation, MDA-MB231
MNNG-HOS Cl#5 = test: Proliferation assay, CellTiter-Glo, 72 hour; assay type: cell-based; conditions: osteosarcoma cell line, read-out: Inhibition of proliferation, MNNG-HOS Cl#5
hTERT-HME1 = test: Proliferation assay, CellTiter-Glo, 72 hour; assay type: cell-based; conditions: read-out: Inhibition of proliferation, hTERT-HME1
RD-ES = test: Proliferation assay, CellTiter-Glo, 72 hour; assay type: cell-based; conditions: Ewing's sarcoma cell line, read-out: Inhibition of proliferation, RD-ES
RNAP II occupancy = test: RNAP II ChIP-seq in Jurkat cells; assay type: cell-based, human; conditions: 250 nM for 6 hours
Protocol: After the indicated treatment time, cells were crosslinked for 10 minutes at room temperature by the addition of one-tenth of the volume of 11% formaldehyde solution (11% formaldehyde, 50 mM Hepes (pH 7.3), 100 mM NaCl, 1 mM EDTA (pH 8.0), 0.5 mM EGTA (pH 8.0)) to the growth media followed by two washes with PBS. Following the final PBS wash, supernatant was aspirated, and the cell pellet was flash frozen in liquid nitrogen. Frozen crosslinked cells were stored at −80° C.
50 μl of Dynal magnetic beads (Sigma) were blocked with 0.5% BSA (w/v) in PBS. Magnetic beads were bound with 5 μg of the indicated antibody. Antibodies used are as follows: Total RNAP II (Rpb1 N-terminus): Santa Cruz sc-899; CDK7: Bethyl A300-405A. Crosslinked cells were lysed with lysis buffer 1 (50 mM Hepes (pH 7.3), 140 mM NaCl, 1 mM EDTA, 10% glycerol, 0.5% NP-40, and 0.25% Triton X-100) and washed with lysis buffer 2 (10 mM Tris-HCl (pH 8.0), 200 mM NaCl, 1 mM EDTA (pH 8.0) and 0.5 mM EGTA (pH 8.0)). […]
Illumina sequencing libraries were generated, and data were processed according to Lin et al., Cell (2012) 151:56-67. […] These criteria preserved only reads that mapped uniquely to the genome with 1 or fewer mismatches. […]

143B = test: Proliferation assay, CellTiter-Glo, 72 hour; assay type: cell-based; conditions: osteosarcoma cell line, read-out: Inhibition of proliferation, 143B
A673 = test: Proliferation assay, CellTiter-Glo, 72 hour; assay type: cell-based; conditions: read-out: Inhibition of proliferation, A673
SK-ES = test: Proliferation assay, CellTiter-Glo, 72 hour; assay type: cell-based; conditions: Ewing's sarcoma cell line, read-out: Inhibition of proliferation, SK-ES
CDK7 [2] = target: T1, CDK7 (Homo sapiens (Human), UniProt P50613); test: In vitro inhibitory activity against CDK7 (Table 1); assay type: biochemical
Protocol: In vitro kinase assays with immunoprecipitated proteins (or recombinant CAK complexes) were performed as follows. Kinase reactions were performed in 25 μL of final volume of reaction buffer (50 mM Hepes, pH 7.5, 150 mM NaCl, 10 mM MgCl2, 5% glycerol, 25 μM ATP, and 10 μCi of [γ-32P]ATP). Each reaction contained 1 μg of RNAP II. Incubation was at 30° C. for 30-45 min. Reactions were terminated by addition of 5 μL of 5×SDS-PAGE sample buffer and incubated at 95° C. for 5 min. Reactions were analyzed by SDS-PAGE, and the dried gel was exposed to film or PhosphorImager plate.
Target sequence in this assay (P50613 whole entry, looked up): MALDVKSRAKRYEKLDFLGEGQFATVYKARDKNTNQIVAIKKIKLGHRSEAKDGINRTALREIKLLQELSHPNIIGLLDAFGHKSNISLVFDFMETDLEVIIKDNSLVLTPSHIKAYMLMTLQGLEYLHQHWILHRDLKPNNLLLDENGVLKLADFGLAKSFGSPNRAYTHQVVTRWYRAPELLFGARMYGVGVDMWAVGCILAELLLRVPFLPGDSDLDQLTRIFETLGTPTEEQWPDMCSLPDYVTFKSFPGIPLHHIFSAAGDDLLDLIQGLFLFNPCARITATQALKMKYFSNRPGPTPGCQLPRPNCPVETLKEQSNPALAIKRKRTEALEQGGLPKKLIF
Target sequence in this assay (P51946 whole entry partner, looked up): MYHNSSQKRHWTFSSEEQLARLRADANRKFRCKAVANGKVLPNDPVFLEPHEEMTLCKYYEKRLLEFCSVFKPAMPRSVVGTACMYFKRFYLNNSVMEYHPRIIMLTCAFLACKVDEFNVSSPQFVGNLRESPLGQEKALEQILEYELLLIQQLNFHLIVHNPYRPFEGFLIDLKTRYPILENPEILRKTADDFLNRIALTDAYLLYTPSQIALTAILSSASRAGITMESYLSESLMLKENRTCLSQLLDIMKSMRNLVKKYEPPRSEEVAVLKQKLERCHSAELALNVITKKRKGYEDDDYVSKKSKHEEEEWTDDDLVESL
Target sequence in this assay (P51948 whole entry partner, looked up): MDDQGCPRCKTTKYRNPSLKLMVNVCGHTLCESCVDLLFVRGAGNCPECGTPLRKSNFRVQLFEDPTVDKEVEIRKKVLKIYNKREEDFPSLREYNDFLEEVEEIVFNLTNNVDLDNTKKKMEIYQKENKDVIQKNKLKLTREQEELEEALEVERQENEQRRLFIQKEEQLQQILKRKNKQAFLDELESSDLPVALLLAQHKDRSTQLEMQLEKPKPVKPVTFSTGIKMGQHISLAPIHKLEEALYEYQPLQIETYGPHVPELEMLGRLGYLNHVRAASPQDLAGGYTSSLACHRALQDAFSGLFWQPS

IRAK1 = IRAK1 (Homo sapiens (Human), UniProt P51617); test: Life Technologies Adapta kinase assay, IRAK1; assay type: biochemical; conditions: superscript b (footnote not given; tested at 100 nM and 1 μM)
Chain of IRAK1 (P51617 whole entry): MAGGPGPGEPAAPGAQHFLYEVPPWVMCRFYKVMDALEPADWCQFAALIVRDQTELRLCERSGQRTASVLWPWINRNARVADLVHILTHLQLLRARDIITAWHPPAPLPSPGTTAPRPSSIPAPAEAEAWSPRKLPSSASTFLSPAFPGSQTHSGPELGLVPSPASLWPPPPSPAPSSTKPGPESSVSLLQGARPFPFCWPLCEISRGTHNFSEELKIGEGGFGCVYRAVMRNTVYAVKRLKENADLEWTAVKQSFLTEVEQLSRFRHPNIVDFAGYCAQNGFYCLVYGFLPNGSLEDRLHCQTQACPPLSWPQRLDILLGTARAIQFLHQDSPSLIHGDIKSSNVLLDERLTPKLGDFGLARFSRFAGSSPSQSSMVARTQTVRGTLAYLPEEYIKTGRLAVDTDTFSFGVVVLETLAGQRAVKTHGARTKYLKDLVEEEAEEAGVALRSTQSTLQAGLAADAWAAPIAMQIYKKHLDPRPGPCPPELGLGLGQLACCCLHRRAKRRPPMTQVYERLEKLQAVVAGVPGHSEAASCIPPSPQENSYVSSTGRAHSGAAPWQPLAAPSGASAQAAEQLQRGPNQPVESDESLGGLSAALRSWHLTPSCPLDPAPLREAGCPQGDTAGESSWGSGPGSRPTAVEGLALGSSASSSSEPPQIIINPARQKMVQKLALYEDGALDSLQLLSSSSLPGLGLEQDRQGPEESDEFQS

MLK3 = MLK3 (Homo sapiens (Human), UniProt Q16584); test: Life Technologies LanthaScreen Eu kinase assay, MLK3; assay type: binding; conditions: for pIC50: read-out: Calculated IC50, MLK3
Chain of MLK3 (Q16584 whole entry): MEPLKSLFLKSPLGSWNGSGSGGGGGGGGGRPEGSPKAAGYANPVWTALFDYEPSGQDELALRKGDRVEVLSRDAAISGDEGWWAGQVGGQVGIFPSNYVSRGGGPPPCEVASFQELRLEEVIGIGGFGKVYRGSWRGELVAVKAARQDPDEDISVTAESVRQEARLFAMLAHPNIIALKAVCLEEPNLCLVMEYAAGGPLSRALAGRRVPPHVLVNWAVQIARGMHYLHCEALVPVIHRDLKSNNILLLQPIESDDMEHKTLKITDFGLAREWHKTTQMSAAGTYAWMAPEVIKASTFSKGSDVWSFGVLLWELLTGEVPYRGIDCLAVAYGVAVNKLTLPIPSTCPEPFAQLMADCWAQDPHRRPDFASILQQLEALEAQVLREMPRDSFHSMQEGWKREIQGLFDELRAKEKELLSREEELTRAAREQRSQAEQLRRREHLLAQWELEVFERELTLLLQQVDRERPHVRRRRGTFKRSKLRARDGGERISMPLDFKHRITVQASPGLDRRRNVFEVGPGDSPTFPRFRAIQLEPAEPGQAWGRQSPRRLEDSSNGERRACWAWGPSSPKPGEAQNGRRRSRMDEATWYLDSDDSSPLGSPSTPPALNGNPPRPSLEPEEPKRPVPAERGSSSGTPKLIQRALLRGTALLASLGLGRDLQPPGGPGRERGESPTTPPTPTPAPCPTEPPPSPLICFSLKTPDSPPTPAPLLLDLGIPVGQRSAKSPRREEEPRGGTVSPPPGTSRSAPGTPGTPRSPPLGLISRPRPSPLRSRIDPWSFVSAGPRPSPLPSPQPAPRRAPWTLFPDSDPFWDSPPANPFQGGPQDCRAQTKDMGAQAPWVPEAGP

CDK7 [3] = target: T1, CDK7; test: Compound I-49 pull down from Loucy cellular lysates; assay type: binding; conditions: 1 μM, 4° C., 12 hours
Protocol: Precipitated proteins were washed and probed for CDK7.
(§1) Following the treatment, the cells were washed 2-fold with cold PBS and then lysed in the following lysis buffer: 50 mM TrisHCl pH 8.0, 150 mM NaCl, 1% NP-40, 5 mM EDTA, 1 mM DTT, and protease/phosphatase cocktails. Following clearance, the lysates were treated with compound I-49 for pulldown (or CDK7 antibody for IP) overnight at 4° C. The lysates were then incubated with streptavidin agarose for pulldown (or Protein G Agarose for IP) for an additional 2-3 hours at 4° C. Agarose beads were washed 5 times with a lysis buffer and then boiled in 2X SDS for 10 minutes at 95° C.
Target sequence in this assay (P50613 whole entry): as the sequence (P50613 whole entry, looked up) above

[4] = test system: CDK1, CDK2, CDK4, and CDK6; test: as above; assay type: binding
Protocol: (§2) However, cyclin K, which is known to bind to CDK12/13, did interact with I-49. […] Lysates were then probed with I-49. Precipitated proteins were washed and probed with antibodies as shown.
as §1

cyclin K = test: as above; assay type: binding
Protocol: as §2, §1

Jurkat = Jurkat (proliferation, CellTiter-Glo); assay type: cell-based; conditions: Homo sapiens, Jurkat; read-out: Calculated IC50, Jurkat
CDK5/p25 = CDK5/p25 (Homo sapiens (Human), UniProt Q00535); test: Life Technologies Z'-Lyte kinase assay, CDK5/p25; assay type: biochemical; conditions: read-out: Calculated IC50, CDK5/p25
Chain of CDK5/p25 (Q00535 whole entry): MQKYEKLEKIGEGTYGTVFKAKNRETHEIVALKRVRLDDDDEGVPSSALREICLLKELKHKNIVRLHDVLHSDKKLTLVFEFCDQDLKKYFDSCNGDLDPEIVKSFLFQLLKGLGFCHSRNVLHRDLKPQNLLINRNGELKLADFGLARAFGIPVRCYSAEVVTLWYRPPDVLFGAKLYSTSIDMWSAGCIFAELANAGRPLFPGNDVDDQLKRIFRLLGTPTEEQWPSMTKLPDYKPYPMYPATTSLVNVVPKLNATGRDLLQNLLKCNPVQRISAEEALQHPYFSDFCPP
Chain of CDK5/p25 (Q15078 99-307 partner): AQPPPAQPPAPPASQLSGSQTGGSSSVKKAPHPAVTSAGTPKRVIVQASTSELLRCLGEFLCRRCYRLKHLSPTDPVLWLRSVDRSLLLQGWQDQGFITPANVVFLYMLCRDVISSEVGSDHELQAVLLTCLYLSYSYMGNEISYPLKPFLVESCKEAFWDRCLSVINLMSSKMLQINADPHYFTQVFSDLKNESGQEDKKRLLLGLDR

## CN1CC[C@H](c2c(O)cc(O)c3c(=O)cc(-c4ccccc4Cl)oc23)[C@H](O)C1 [Flavopiridol, flavopiridol, reference compound]
Hs822T
  pIC50: < 5.30
SAOS
  pIC50: > 6.30
MCF10A; Homo sapiens, MCF-10A
  pIC50: > 6.30
MV4-11; Homo sapiens, MV4-11, blood cancer cell line
  pIC50: > 6.30
T47D; Homo sapiens, T47D
  pIC50: < 5.30
RS4-11; Homo sapiens, RS4-11, blood cancer cell line
  pIC50: > 6.30
[1]
  pEC50: > 6.70
MCF7; Homo sapiens, MCF7, breast cancer cell line
  pIC50: 5.30 to 6.30
HL60; Homo sapiens, HL-60, blood cancer cell line
  pIC50: > 6.30
SKBR3; Homo sapiens, SK-BR-3, breast cancer cell line
  pIC50: > 6.30
Hs863T
  pIC50: < 5.30
THP-1; Homo sapiens, THP-1, blood cancer cell line
  pIC50: > 6.30
MDA-MB231; Homo sapiens, MDA-MB-231, breast cancer cell line
  pIC50: > 6.30
MNNG-HOS Cl#5
  pIC50: 5.30 to 6.30
hTERT-HME1; hTERT-HME1, immortalized normal mammary epithelial cell line
  pIC50: > 6.30
RD-ES; RD-ES
  pIC50: > 6.30
RNAP II occupancy
  RNAP II occupancy at the promoter proximal pause site: unaffected
143B; Homo sapiens, 143B
  pIC50: 5.30 to 6.30
A673; Homo sapiens, A673, Ewing's sarcoma cell line
  pIC50: > 6.30
SK-ES
  pIC50: > 6.30

## Cc1ccc(Nc2ncc(C)c(-c3c[nH]c4ccccc34)n2)cc1NC(=O)c1ccc(NC(=O)/C=C/CN(C)C)cc1 [Formula I-20]
Hs822T
  pIC50: > 6.30
CDK7 [2]
  pIC50: 7.68
SAOS
  pIC50: > 6.30
IRAK1
  Percent inhibition, IRAK1^b: C (less than 50% inhibition)
MCF10A
  pIC50: > 6.30
MV4-11; blood cancer cell line
  pIC50: > 6.30
T47D
  pIC50: 5.30 to 6.30
RS4-11; blood cancer cell line
  pIC50: > 6.30
MCF7; breast cancer cell line
  pIC50: > 6.30
HL60; blood cancer cell line
  pIC50: > 6.30
SKBR3; breast cancer cell line
  pIC50: 5.30 to 6.30
Hs863T
  pIC50: > 6.30
THP-1; blood cancer cell line
  pIC50: > 6.30
MDA-MB231; breast cancer cell line
  pIC50: > 6.30
MNNG-HOS Cl#5
  pIC50: 5.30 to 6.30
MLK3
  pIC50: > 7.00
MLK3; superscript b (footnote not given; tested at 100 nM and 1 μM)
  Percent inhibition, MLK3^b: C (less than 50% inhibition)
hTERT-HME1; immortalized normal mammary epithelial cell line
  pIC50: > 6.30
RD-ES
  pIC50: > 6.30
143B
  pIC50: < 5.30
A673; Ewing's sarcoma cell line
  pIC50: > 6.30
SK-ES
  pIC50: > 6.30

## CN(C/C=C/C(=O)Nc1ccc(C(=O)Nc2cccc(Nc3ncc(Cl)c(-c4c[nH]c5ccccc45)n3)c2)cc1)CCCNC(=O)NCCOCCOCCOCCNC(=O)CCCCC1SCC2NC(=O)NC21 (stereo not drawn) [Formula I-49]
CDK7 [3]
  Pull down of CDK7 from cellular lysates: pulls down CDK7
[4]
  Interaction with CDK1, CDK2, CDK4, and CDK6: do not interact
Cyclin K
  Interaction with cyclin K: did interact

## CN(C)C/C=C/C(=O)Nc1ccc(C(=O)Nc2cccc(Nc3ncc(C#N)c(-c4c[nH]c5ccccc45)n3)c2)cc1 [Formula I-53, (E)-N-(3-(5-cyano-4-(1H-indol-3-yl)pyrimidin-2-ylamino)phenyl)-4-(4-(dimethylamino)but-2-enamido)benzamide]
MLK3
  pIC50: > 7.00
Jurkat
  pIC50: > 7.00
CDK5/p25
  pIC50: 6.00 to 7.00
